# Test results from patent US20120101136A1, “5-MEMBERED HETEROARYL DERIVATIVES USED AS SPHINGOSINE 1- PHOSPHATE RECEPTOR AGONISTS” (GLAXO GROUP LIMITED, priority 2009, published 2012).
# pEC50: −log10 of the molar value.
# Target: T1, S1P1 receptor (human Endothelial Differentiation Gene 1 (EDG1)) (Homo sapiens, UniProt P21453)
# T1 construct: TEV protease site; Gal4-VP16 transcription factor; expressed in transfected cells; host or cells: Tango GPCR-bla U2OS parental cell line (EDG1-bla/U2OS)
# Experiment: S1P1 Tango Assay - 384 Well Format (EDG1-bla/U2OS cells)
# Format: cell-based
# Settings: agonist, beta-lactamase reporter
# Protocol: Recombinant EDG1-bla/U2OS cells (contain the human Endothelial Differentiation Gene 1 (EDG1) linked to a TEV protease site and a Gal4-VP16 transcription factor stably integrated into the Tango GPCR-bla U2OS parental cell line) were harvested from growth medium and passaged into assay medium (Invitrogen Freestyle Expression Medium). The cells were starved for 24 hours at 37° C., 5% CO2, harvested and resuspended in assay medium at a density of ˜200,000 cells/ml.
# All test compounds were dissolved in DMSO at a concentration of 10 mM and were prepared in 100% DMSO to provide 10 point dose response curves. Test compounds prepared by Bravo (Velocity 11) were added to wells in columns 2-11 and 13-22; DMSO was added to wells in columns 12 and 23 as unstimulated controls and assay medium was added to wells in columns 1 and 24 as cell-free controls. An S1P1 agonist was added to wells in row 2, columns 2-11 as stimulated controls and test compounds were added to wells in row 2, columns 13-22 and rows 3-15, columns 2-11/13-22 (row 1 and 16 were empty and not used). Compounds in solution were added to the assay plate (Greiner 781090) using an Echo (Labcyte) dose-response program (50 nl/well). The unstimulated and cell-free controls were loaded with 50 nl/well pure DMSO to ensure that the DMSO concentration was constant across the plate for all assays.
# 50 μl of the cell suspension was added to each well in columns 2-23 of the plate (˜10,000 cells per well). 50 μl of assay medium was added to each well in the cell-free controls (columns 1 and 24). The cells were incubated overnight at 37° C./5% CO2.
# 10 μl of 6× substrate mixture (LiveBLAzer™-FRET B/G substrate (CCF4-AM) Cat # K1096 from Invitrogen, Inc.) was added to each well using Bravo and the plates incubated at room temperature for 2 h in the dark. The plate was finally read on EnVision using one excitation channel (409 nm) and two emission channels (460 nm and 530 nm).
# The blue/green emission ratio (460 nm/530 nm) was calculated for each well, by dividing the background-subtracted Blue emission values by the background-subtracted Green emission values. The dose response curve is based on sigmoidal dose-response model. All ratio data was normalized based upon the maximum emission ratio of positive control and minimum emission ratio of negative control (DMSO) on each plate. The intrinsic activity (IA) of each compound would be the normalized percentage of its maximum response after curve fitting.
# T1 sequence (P21453 whole entry, the tested form may be a part): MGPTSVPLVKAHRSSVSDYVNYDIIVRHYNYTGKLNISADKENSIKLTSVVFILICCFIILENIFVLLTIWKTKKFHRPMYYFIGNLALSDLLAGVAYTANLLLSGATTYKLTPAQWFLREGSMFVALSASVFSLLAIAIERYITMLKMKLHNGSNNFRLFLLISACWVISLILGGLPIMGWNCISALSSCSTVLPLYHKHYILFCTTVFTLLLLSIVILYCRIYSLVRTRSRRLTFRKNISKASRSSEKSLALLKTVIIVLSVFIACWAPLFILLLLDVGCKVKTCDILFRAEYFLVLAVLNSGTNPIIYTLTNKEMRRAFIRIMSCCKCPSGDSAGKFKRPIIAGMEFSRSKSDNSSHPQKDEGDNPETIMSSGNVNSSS
row,SMILES,pEC50
1,"CCCNCCCCOc1ccc(-c2noc(-c3ccc(OC(C)C)c(C#N)c3)n2)c(Cl)c1 [Example 19, 5-[3-(2-chloro-4-{[4-(propylamino)butyl]oxy}phenyl)-1,2,4-oxadiazol-5-yl]-2-[(1-methylethyl)oxy]benzonitrile]",≥ 8.00
2,"CCc1cc(OCCCNC)ccc1-c1nnc(-c2ccc(OC(C)C)c(C#N)c2)o1 [Example 14, 5-[5-(2-ethyl-4-{[3-(methylamino)propyl]oxy}phenyl)-1,3,4-oxadiazol-2-yl]-2-[(1-methylethyl)oxy]benzonitrile]",≥ 7.00
3,"CC(C)Oc1ccc(-c2nc(-c3ccc(OCCCCC(=O)O)cc3F)no2)cc1C#N [Example 11, 5-{[4-(5-{3-Cyano-4-[(1-methylethyl)oxy]phenyl}-1,2,4-oxadiazol-3-yl)-3-fluorophenyl]oxy}pentanoic acid]",≥ 9.00
4,"CC(C)NCCCCOc1ccc(-c2noc(-c3ccc(OC(C)C)c(C#N)c3)n2)c(Cl)c1 [Example 18, 5-{3-[2-chloro-4-({4-[(1-methylethyl)amino]butyl}oxy)phenyl]-1,2,4-oxadiazol-5-yl}-2-[(1-methylethyl)oxy]benzonitrile]",≥ 8.00
5,"CC(C)Oc1ccc(-c2nc(-c3ccc(OCCCC(=O)O)cc3)no2)cc1C#N [Example 24, 4-{[4-(5-{3-cyano-4-[(1-methylethyl)oxy]phenyl}-1,2,4-oxadiazol-3-yl)phenyl]oxy}butanoic acid]",≥ 9.00
6,"CNCCCOc1ccc(-c2noc(-c3ccc(OC(C)C)c(C#N)c3)n2)c(Cl)c1 [Example 37, 5-[3-(2-chloro-4-{[3-(methylamino)propyl]oxy}phenyl)-1,2,4-oxadiazol-5-yl]-2-[(1-methylethyl)oxy]benzonitrile]",≥ 9.00
7,"CCc1cc(OCC(=O)O)ccc1-c1noc(-c2ccc(OC(C)C)c(Cl)c2)n1 [Example 28, {[4-(5-{3-chloro-4-[(1-methylethyl)oxy]phenyl}-1,2,4-oxadiazol-3-yl)-3-ethylphenyl]oxy}acetic acid]",≥ 9.00
8,"CC(C)Oc1ccc(-c2nc(-c3ccc(OCCCCN(C)C)cc3Cl)no2)cc1C#N [Example 17, 5-[3-(2-chloro-4-{[4-(dimethylamino)butyl]oxy}phenyl)-1,2,4-oxadiazol-5-yl]-2-[(1-methylethyl)oxy]benzonitrile]",≥ 8.00

# Results, then the compound that gave them:
row,pEC50,SMILES
1,≥ 9.00,"CCc1cc(OCCCC(=O)O)ccc1-c1nnc(-c2ccc(OC(C)C)c(C#N)c2)s1 [Example 16, 4-{[4-(5-{3-cyano-4-[(1-methylethyl)oxy]phenyl}-1,3,4-thiadiazol-2-yl)-3-ethylphenyl]oxy}butanoic acid]"
2,≥ 7.00,"CCc1cc(OCCCCNC)ccc1-c1noc(-c2ccc(OC(C)C)c(Cl)c2)n1 [Example 34, (4-{[4-(5-{3-chloro-4-[(1-methylethyl)oxy]phenyl}-1,2,4-oxadiazol-3-yl)-3-ethylphenyl]oxy}butyl)methylamine]"
3,≥ 8.00,"COCCOc1ccc(-c2noc(-c3ccc(OC(C)C)c(Cl)c3)n2)c(C)c1 [Example 6, 5-{3-Chloro-4-[(1-methylethyl)oxy]phenyl}-3-(2-methyl-4-{[2-(methyloxy)ethyl]oxy}phenyl)-1,2,4-oxadiazole]"
4,≥ 9.00,"CCc1cc(OCCCCC(=O)O)ccc1-c1noc(-c2ccc(OC(C)C)c(Cl)c2)n1 [Example 29, 5-{[4-(5-{3-chloro-4-[(1-methylethyl)oxy]phenyl}-1,2,4-oxadiazol-3-yl)-3-ethylphenyl]oxy}pentanoic acid]"
5,≥ 6.00,"CCc1cc(OCCCNC)ccc1-c1cnc(-c2ccc(OC(C)C)c(C#N)c2)s1 [Example 44, 5-[5-(2-ethyl-4-{[3-(methylamino)propyl]oxy}phenyl)-1,3-thiazol-2-yl]-2-[(1-methylethyl)oxy]benzonitrile]"
